Results published in patent publication US20100081713A1, “COMPOSITIONS AND METHODS FOR TREATING VIRAL INFECTIONS” (priority 2008, published 2010).
Entries after “also recorded” stand apart in the source; their conditions may differ.

Tested on: influenza A/PR/8/34
Set-up: species or system C57/BL6 mice
Details: mouse, in vivo

SMILES: CN[C@H]1CC[C@@H](c2ccc(Cl)c(Cl)c2)c2ccccc21 [Sertraline]
- survival rate, result in words: dose dependant increase in survival rate; also recorded: improves survival rate
